Test results as given in patent publication US20030181380A1, “Modulating lymphoid commitment and survival” (priority 2002, published 2003).
Blank lines part the entries; values can stand above or below the compound they belong to. Residues, ends and D or L forms follow the SMILES beside them. *: point of attachment. Cbz = O=C(OCc1ccccc1)*; CH2F = FC*

How the values were obtained:
JM-1 cells = experiment: Tamoxifen-inducible ICN1 (ICN1-ER-BD) in JM-1 subclones: PI, AnnexinV, RT-PCR; assay type: cell-based, human; conditions: JM-1 subclones with tamoxifen-inducible ICN1
From the text: To further characterize this effect, a retroviral vector containing a tamoxifen-inducible-ICN1 vector co-expressing GFP (ICN1+GFP) was stably transduced into three of the JM-1 human B-ALL leukemia/lymphoma′cell lines. To accomplish this, the estrogen receptor hormone-binding domain (ER-BD) was fused via a linker to ICN1. This fusion product was expressed on the MigR1 (MSCV-based) retroviral vector, which co-expresses GFP. JM-1 cells were transduced with this construct and subclones were selected for high expression. The GFP positive populations were sub cloned and individual clones expressing various levels of ICN1+GFP were analyzed after exposure to tamoxifen (FIG. 18A). Subclone JM-1.2 was exposed to tamoxifen and RT-PCR was performed (FIG. 18B). Growth arrest was shown by PI staining, apoptosis was measured by AnnexinV staining, and increased levels of Hairy expression were measured by RT-PCR. The percentage of non-GO/G1 cells was normalized to pre-treatment levels by duplicate experiments. The results of three experiments averaged ± standard deviation compared with EtOH control, and the average of duplicate experiments was relative to GAPDH expression and normalized to day 0 (pre-treatment) levels.
This effect was similar to the results seen with non-induced constructs.

V9 cells = experiment: AnnexinV staining of ICN1-transduced V9 cells cultured with caspase inhibitor; assay type: cell-based, murine
Procedure: Apoptosis is frequently mediated by caspases, a family of cysteine proteases, whose activation leads to cell death. To further characterize the ICN1-induced cell death, ICN1-transduced V9 cells were cultured with either the general caspase inhibitor, zVAD (50 μM in DMSO), or DMSO alone (zVAD vehicle only), and analyzed 22 and 44 hours later (FIG. 3B). When cultured in control media (no zVAD), the great majority of GFP+ cells became AnnexinV positive by 22 hours post transduction, and few GFP positive cells remained at 44 hours (FIG. 3B, middle panel).
This may due to the incomplete inhibition of zVAD on the targeted caspases or, alternatively, caspase-independent pathways also contribute the B cell death.

[1] = biological target: Notch receptors on human B-ALL cell line JM-1; experiment: cell-based or functional assay

Compound: CC/C(=C(\c1ccccc1)c1ccc(OCCN(C)C)cc1)c1ccccc1 [tamoxifen]
- cell cycle and apoptosis after induction (JM-1 cells): cell cycle (growth) arrest and apoptosis

Compound: CC(NC(=O)C(NC(=O)OCc1ccccc1)C(C)C)C(=O)NC(CC(=O)O)C(=O)CF (stereo not drawn) [zVAD] (Cbz-Val-Ala-Asp-CH2F; configuration not given here)
- ICN1-transduced cells becoming AnnexinV positive (V9 cells; 50 μM zVAD, 22 hours): only a few
- protection of V9 cells from apoptosis (V9 cells; zVAD, up to 44 hours post-transduction): only partially protected

- Hairy expression in B-ALL cells by RT-PCR at 24 hours of co-culture [1]: 5 fold
Compound: human Jagged2 (from UniProt Q9Y219 24-1238) (ligand)

- Hairy expression in B-ALL cells by RT-PCR at 24 hours of co-culture [1]: 5 fold
Compound: human Jagged1 (from UniProt P78504 34-1218) (ligand)
